Source: article PMC12974487, “Inhibition of FicD-mediated AMPylation and deAMPylation by isoprenoid diphosphates” (Proceedings of the National Academy of Sciences of the …, 2026)
“Also recorded” adds a separate entry of the source.

Target: T1, VopS (Vibrio parahaemolyticus serotype O3:K6, UniProt Q87P32)
T1 construct: made in house
Experiment: In vitro AMPylation of GST-CDC42 by VopS
Assay type: biochemical
Excerpt: Finally, we explored the inhibitory effects of GPP/FPP on other Fido proteins to see if these metabolites could serve as generic inhibitors of Fido domains. To test this specificity, we performed in vitro activity assays with GPP/FPP and two constitutively active Fido proteins from bacteria: VopS from Vibrio parahaemolyticus ([25]) and AvrB from Pseudomonas syringae ([30]). […]
visualization. Min-max scaled RFU values and the first derivatives are plotted as a function of temperature in Graphpad Prism 10.6.1. In Prism, the first derivative values are uniformly nudged by -1 to facilitate presenting RFU values and their first derivatives on the same graph.
To generate dose-response curves, ΔTm, was first calculated by subtracting the Tm of the ’no ligand’ control from the Tm of relevant ligand-containing reactions. ΔTm was then plotted as a function of ligand concentration. Dose-response curves were fit using GraphPad Prism 10.6.1 with the [Agonist] vs. Response – Variable Slope (four parameters) model. […]
Dialyzed proteins were then spun down at 21,000G for 15 minutes at 4C to remove trace insoluble material. The protein concentration was measured spectrophotometrically and then diluted to working concentration with 25mM HEPES pH 7.4/100mM KCl/10% glycerol. […] Integrated data was globally analyzed in SEDPHAT 15.b (12) using a model considering a single class of binding sites. […]

T1 sequence (Q87P32 31-387): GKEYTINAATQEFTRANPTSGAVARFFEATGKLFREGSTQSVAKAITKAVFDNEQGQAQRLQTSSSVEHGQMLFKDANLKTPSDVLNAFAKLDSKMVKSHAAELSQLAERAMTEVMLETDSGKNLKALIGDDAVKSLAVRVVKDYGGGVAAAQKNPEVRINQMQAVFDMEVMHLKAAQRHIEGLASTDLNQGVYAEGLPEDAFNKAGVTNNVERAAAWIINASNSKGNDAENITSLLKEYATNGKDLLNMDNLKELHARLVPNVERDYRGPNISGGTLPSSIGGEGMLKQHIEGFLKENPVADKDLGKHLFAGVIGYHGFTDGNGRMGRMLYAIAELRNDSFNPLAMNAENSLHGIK

CC(C)=CCC/C(C)=C/CC/C(C)=C/COP(=O)(O)OP(=O)(O)O [FPP, farnesyl-pyrophosphate]
effect on AMPylation activity of VopS: Neither GPP nor FPP affected; also recorded: not inhibited

CC(C)=CCC/C(C)=C/COP(=O)(O)OP(=O)(O)O [GPP, geranyl-pyrophosphate]
effect on AMPylation activity of VopS: Neither GPP nor FPP affected
